Source: patent US8648066B2 (Exelixis, Inc., priority 2009, dated 2014)

Biological target: mTOR/GbL/Raptor (mTORC1) (Homo sapiens, UniProt P42345)
Assay: mTOR/GbL/Raptor (mTORC1) ELISA assay
Assay type: biochemical
Conditions: phosphorylation of 4E-BP1; 0.2 nM mTORC1, 10 μM ATP; read-out: IC50 in this assay (mTORC1 ELISA)
Outline: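 Human mTORC1 (0.2 nM) phosphorylated 50 nM His-tagged 4E-BP1 with 10 µM ATP in HEPES pH 7.2 containing 10 mM MnCl2, 120 min at ambient temperature. Substrate was captured on Ni-chelate plates; phospho-4E-BP1 was detected by primary antibody and HRP secondary with luminescence.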

| Structure (SMILES) | IC50 [nM] |
| --- | --- |
| Cc1nc(C)c(CC2CC2)c(N2CCOc3ccc(-c4cnc5nc(C)[nH]c5c4)cc3C2)n1 [Example 492, 4-[5-(cyclopropylmethyl)-2,6-dimethylpyrimidin-4-yl]-7-(2-methyl-1H-imidazo[4,5-b]pyridin-6-yl)-2,3,4,5-tetrahydro-1,4-benzoxazepine] | 10 to 50 |
| Cc1nc2ncc(-c3ccc4c(c3)CN(c3ncnc(C)c3CC3CC3)CCO4)cc2[nH]1 [Example 493, 4-[5-(cyclopropylmethyl)-6-methylpyrimidin-4-yl]-7-(2-methyl-1H-imidazo[4,5-b]pyridin-6-yl)-2,3,4,5-tetrahydro-1,4-benzoxazepine] | 10 to 50 |
| COCCOCc1nc2c(c(N3CCOc4ccc(-c5ccc6nc(C)[nH]c6c5)cc4C3)n1)CC(C)(C)CC2 [Example 494, 4-[6,6-dimethyl-2-({[2-(methyloxy)ethyl]oxy}methyl)-5,6,7,8-tetrahydroquinazolin-4-yl]-7-(2-methyl-1H-benzimidazol-6-yl)-2,3,4,5-tetrahydro-1,4-benzoxazepine] | 10 to 50 |
| COCCOCc1nc2c(c(N3CCOc4ccc(-c5cnc6nc(C)[nH]c6c5)cc4C3)n1)CC(C)(C)CC2 [Example 495, 4-[6,6-dimethyl-2-({[2-(methyloxy)ethyl]oxy}methyl)-5,6,7,8-tetrahydroquinazolin-4-yl]-7-(2-methyl-1H-imidazo[4,5-b]pyridin-6-yl)-2,3,4,5-tetrahydro-1,4-benzoxazepine] | ≤ 10 |
| Cc1nc2cc(-c3ccc4c(c3)CN(c3nc(C(C)N5CCCC5)nc5c3CC(C)(C)CC5)CCO4)cnc2[nH]1 (centres unmarked) [Example 496, 4-[6,6-dimethyl-2-(1-pyrrolidin-1-ylethyl)-5,6,7,8-tetrahydroquinazolin-4-yl]-7-(2-methyl-3H-imidazo[4,5-b]pyridin-6-yl)-2,3,4,5-tetrahydro-1,4-benzoxazepine] | 250 to 1000 |
| Cc1nc2ncc(-c3ccc4c(c3)CN(c3nc(CN5CCCCC5)nc5c3CC(C)(C)CC5)CCO4)cc2[nH]1 [Example 499, 4-[6,6-dimethyl-2-(piperidin-1-ylmethyl)-5,6,7,8-tetrahydroquinazolin-4-yl]-7-(2-methyl-1H-imidazo[4,5-b]pyridin-6-yl)-2,3,4,5-tetrahydro-1,4-benzoxazepine] | 50 to 250 |
| Cc1nc2cc(-c3ccc4c(c3)CN(c3nc(CN5CCCC5)nc5c3CC(C)(C)CC5)CCO4)ccc2[nH]1 [Example 500, 4-[6,6-dimethyl-2-(pyrrolidin-1-ylmethyl)-5,6,7,8-tetrahydroquinazolin-4-yl]-7-(2-methyl-1H-benzimidazol-5-yl)-2,3,4,5-tetrahydro-1,4-benzoxazepine] | ≤ 10 |
| Cc1nc2ncc(-c3ccc4c(c3)CN(c3nc(CN5CCC(F)(F)C5)nc5c3CC(C)(C)CC5)CCO4)cc2[nH]1 [Example 503, 4-{2-[(3,3-difluoropyrrolidin-1-yl)methyl]-6,6-dimethyl-5,6,7,8-tetrahydroquinazolin-4-yl}-7-(2-methyl-1H-imidazo[4,5-b]pyridin-6-yl)-2,3,4,5-tetrahydro-1,4-benzoxazepine] | 10 to 50 |
| COc1ccc2c(N3CCOc4ccc(-c5ccc(N)cc5)cc4C3)nc(C)nc2c1 [Example 504, 4-{4-[2-methyl-7-(methyloxy)quinazolin-4-yl]-2,3,4,5-tetrahydro-1,4-benzoxazepin-7-yl}aniline] | 250 to 1000 |
| Cc1nc2cc(-c3ccc4c(c3)CN(c3nc([C@H]5CCCN5)nc5c3CC(C)(C)CC5)CCO4)ccc2[nH]1 [Example 505, 4-{6,6-dimethyl-2-[(2R)-pyrrolidin-2-yl]-5,6,7,8-tetrahydroquinazolin-4-yl}-7-(2-methyl-1H-benzimidazol-5-yl)-2,3,4,5-tetrahydro-1,4-benzoxazepine] | 10 to 50 |
| COCc1nc2c(c(N3CCOc4ccc(-c5cnc6[nH]c(C)nc6c5)cc4C3)n1)CC(C)(C)CC2 [Example 508, 4-{6,6-dimethyl-2-[(methyloxy)methyl]-5,6,7,8-tetrahydroquinazolin-4-yl}-7-(2-methyl-3H-imidazo[4,5-b]pyridin-6-yl)-2,3,4,5-tetrahydro-1,4-benzoxazepine] | ≤ 10 |
| CN(C)Cc1nc2c(c(N3CCOc4ccc(-c5ccc(N)nc5)cc4C3)n1)CC(C)(C)CC2 [Example 509, 5-(4-{2-[(dimethylamino)methyl]-6,6-dimethyl-5,6,7,8-tetrahydroquinazolin-4-yl}-2,3,4,5-tetrahydro-1,4-benzoxazepin-7-yl)pyridin-2-amine] | 50 to 250 |

The next lines start with the values.

| IC50 [nM] | Structure (SMILES) |
| --- | --- |
| 10 to 50 | Cc1nc2cc(-c3ccc4c(c3)CN(c3nc(CCN5CCCC5)nc5c3CC(C)(C)CC5)CCO4)cnc2[nH]1 [Example 497, 4-[6,6-dimethyl-2-(2-pyrrolidin-1-ylethyl)-5,6,7,8-tetrahydroquinazolin-4-yl]-7-(2-methyl-3H-imidazo[4,5-b]pyridin-6-yl)-2,3,4,5-tetrahydro-1,4-benzoxazepine] |
| 50 to 250 | Cc1nc2ncc(-c3ccc4c(c3)CN(c3nc(CN5CCOCC5)nc5c3CC(C)(C)CC5)CCO4)cc2[nH]1 [Example 498, 4-[6,6-dimethyl-2-(morpholin-4-ylmethyl)-5,6,7,8-tetrahydroquinazolin-4-yl]-7-(2-methyl-1H-imidazo[4,5-b]pyridin-6-yl)-2,3,4,5-tetrahydro-1,4-benzoxazepine] |
| ≤ 10 | Cc1nc2cc(-c3ccc4c(c3)CN(c3nc(CN5CCCC5)nc5c3CC(C)(C)CC5)CCO4)cnc2[nH]1 [Example 501, 4-[6,6-dimethyl-2-(pyrrolidin-1-ylmethyl)-5,6,7,8-tetrahydroquinazolin-4-yl]-7-(2-methyl-3H-imidazo[4,5-b]pyridin-6-yl)-2,3,4,5-tetrahydro-1,4-benzoxazepine] |
| ≤ 10 | Cc1nc2cc(-c3ccc4c(c3)CN(c3ncnc5c3CC3(CC5)CC3)CCO4)cnc2[nH]1 [Example 502] |
| ≤ 10 | Cc1nc2cc(-c3ccc4c(c3)CN(c3nc([C@H]5CCCN5)nc5c3CC(C)(C)CC5)CCO4)cnc2[nH]1 [Example 506, 4-{6,6-dimethyl-2-[(2R)-pyrrolidin-2-yl]-5,6,7,8-tetrahydroquinazolin-4-yl]-7-(2-methyl-3H-imidazo[4,5-b]pyridin-6-yl)-2,3,4,5-tetrahydro-1,4-benzoxazepine] |
| ≤ 10 | Cc1nc2cc(-c3ccc4c(c3)CN(c3nc([C@@H]5CCCN5)nc5c3CC(C)(C)CC5)CCO4)cnc2[nH]1 [Example 507, 4-{6,6-dimethyl-2-[(2S)-pyrrolidin-2-yl]-5,6,7,8-tetrahydroquinazolin-4-yl}-7-(2-methyl-3H-imidazo[4,5-b]pyridin-6-yl)-2,3,4,5-tetrahydro-1,4-benzoxazepine] |
| 10 to 50 | CCS(=O)(=O)c1cc(-c2ccc3c(c2)CN(c2ncnc4c2CC(C)(C)CC4)CCO3)cnc1N [Example 510, 5-[4-(6,6-dimethyl-5,6,7,8-tetrahydroquinazolin-4-yl)-2,3,4,5-tetrahydro-1,4-benzoxazepin-7-yl]-3-(ethylsulfonyl)pyridin-2-amine] |
| 50 to 250 | CC1(C)CCc2ncnc(N3CCOc4ccc(-c5cnc(N)c(S(=O)(=O)N6CC7CNCC7C6)c5)cc4C3)c2C1 (centres unmarked) [Example 511, 5-[4-(6,6-dimethyl-5,6,7,8-tetrahydroquinazolin-4-yl)-2,3,4,5-tetrahydro-1,4-benzoxazepin-7-yl]-3-(hexahydropyrrolo[3,4-c]pyrrol-2(1H)-ylsulfonyl)pyridin-2-amine] |
